test system: rat spleen cells; assay: cells; assay type: cell-based; conditions: 24 h, read-out: Minimum effective concentration (interferon inducing activity)

In order of falling minimal effective concentration:
1. CCCCOc1nc(N)c2[nH]c(=O)n(CCCCNC(=O)Nc3cccc(C(=O)O)c3)c2n1 [Comparison Example 10, 2-butoxy-8-oxo-9-[4-(3-hydroxycarbonylphenylaminocarbonylamino)butyl]adenine, reference compound]  0.3 µM
2. CCCCOc1nc(N)c2nc(O)n(CCCCNS(=O)(=O)c3cccc(CC(=O)O)c3)c2n1 [Comparison Example 9, 2-butoxy-8-oxo-9-[4-(3-hydroxycarbonylmethylbenzenesulfonamide)butyl]adenine, reference compound]  0.3 µM
3. CCCCOc1nc(N)c2[nH]c(=O)n(CCOc3ccccc3CC(=O)O)c2n1 [Comparison Example 4, 2-butoxy-8-oxo-9-[2-(2-hydroxycarbonylmethylphenoxy)ethyl]adenine, reference compound]  0.1 µM
4. CCCCOc1nc(N)c2[nH]c(=O)n(CCOc3ccccc3C(=O)O)c2n1 [Comparison Example 3, 2-butoxy-8-oxo-9-[2-(2-hydroxycarbonylphenoxy)ethyl]adenine, reference compound]  0.1 µM
5. CCCCOc1nc(N)c2[nH]c(=O)n(CCCCNS(=O)(=O)c3cccc(C(=O)O)c3)c2n1 [Comparison Example 8, 2-butoxy-8-oxo-9-[4-(3-hydroxycarbonylbenzenesulfonamide)butyl]adenine, reference compound]  0.1 µM
6. CCCCOc1nc(N)c2[nH]c(=O)n(CCCCNC(=O)Nc3cccc(CC(=O)O)c3)c2n1 [Comparison Example 11, 2-butoxy-8-oxo-9-[4-(3-hydroxycarbonylmethylphenylaminocarbonylamino)butyl]adenine, reference compound]  0.1 µM
7. CCCCOc1nc(N)c2[nH]c(=O)n(CCOc3cccc(CC(=O)O)c3)c2n1 [Comparison Example 2, 2-butoxy-8-oxo-9-[2-(3-hydroxycarbonylmethylphenoxy)ethyl]adenine, reference compound]  0.03 µM
8. CCCCOc1nc(N)c2[nH]c(=O)n(CCCCNC(=O)Nc3cccc(CC(=O)OC)c3)c2n1 [Example 11, 2-butoxy-8-oxo-9-[4-(3-methoxycarbonylmethylphenylaminocarbonylamino)butyl]adenine]  0.01 µM
9. CCCCOc1nc(N)c2[nH]c(=O)n(CCOc3cccc(C(=O)O)c3)c2n1 [Comparison Example 1, 2-butoxy-8-oxo-9-[2-(3-hydroxycarbonylphenoxy)ethyl]adenine, reference compound]  0.01 µM

test system: not given; assay: not given; conditions: not given

Compared with `CCCCOc1nc(N)c2[nH]c(=O)n(CCCCN(CCOC)S(=O)(=O)c3cccc(CC(=O)OC)c3)c2n1` [Example 2-15, Methyl (3-{[[4-(6-amino-2-butoxy-8-oxo-7,8-dihydro-9H-purin-9-yl)butyl](2-methoxyethyl)amino]sulfonyl}phenyl)acetate], `CCCCOc1nc(N)c2[nH]c(=O)n(CCCCN(CCOC)S(=O)(=O)c3cccc(CC(=O)O)c3)c2n1` [Example 2-16, (3-{[[4-(6-Amino-2-butoxy-8-oxo-7,8-dihydro-9H-purin-9-yl)butyl](2-methoxyethyl)amino]sulfonyl}phenyl)acetic acid] is lower in melting point: 182 to 183 °C for the first, 171 to 172 °C for the second.

Compared with `CCCCOc1nc(N)c2[nH]c(=O)n(CCSc3cccc(CC(=O)O)c3)c2n1` [Example 2-40, (3-{[2-(6-Amino-2-butoxy-8-oxo-7,8-dihydro-9H-purin-9-yl)ethyl]thio}phenyl)acetic acid], `CCCCOc1nc(N)c2[nH]c(=O)n(CCSc3cccc(CC(=O)OC)c3)c2n1` [Example 2-39, Methyl (3-{[2-(6-amino-2-butoxy-8-oxo-7,8-dihydro-9H-purin-9-yl)ethyl]thio}phenyl)acetate] is higher in melting point: 205 to 207 °C for the first, 232 to 233 °C for the second.

First: CCCCOc1nc(N)c2[nH]c(=O)n(CCCCN(CCCN3CCCC3=O)Cc3cccc(CC(=O)OC)c3)c2n1 [Example 2-33, Methyl [3-({[4-(6-amino-2-butoxy-8-oxo-7,8-dihydro-9H-purin-9-yl)butyl][3-(2-oxopyrrolidin-1-yl)propyl]amino}methyl)phenyl]acetate]
Second: CCCCOc1nc(N)c2[nH]c(=O)n(CCCCN(CCN3CCOCC3)Cc3cccc(CC(=O)OC)c3)c2n1 [Example 2-35, Methyl (3-{[[4-(6-amino-2-butoxy-8-oxo-7,8-dihydro-9H-purin-9-yl)butyl](2-morpholin-4-ylethyl)amino]methyl}phenyl)acetate]
The melting point of the first is lower: 115 to 116 °C for the first, 189 to 190 °C for the second.

First: CCCCOc1nc(N)c2[nH]c(=O)n(CCNc3cccc(CC(=O)OC)c3)c2n1 [Example 2-41, Methyl (3-{[2-(6-amino-2-butoxy-8-oxo-7,8-dihydro-9H-purin-9-yl)ethyl]amino}phenyl)acetate]
Second: CCCCOc1nc(N)c2[nH]c(=O)n(CCCNc3cccc(CC(=O)OC)c3)c2n1 [Example 2-42, Methyl (3-{[3-(6-amino-2-butoxy-8-oxo-7,8-dihydro-9H-purin-9-yl)propyl]amino}phenyl)acetate]
The melting point of the first is higher: 222 to 223 °C for the first, 208 to 209 °C for the second.

First: CCCCOc1nc(N)c2[nH]c(=O)n(CCCCN(CC(C)(C)CN(C)C)S(=O)(=O)c3cccc(CC(=O)O)c3)c2n1 [Example 2-20, [3-({[4-(6-Amino-2-butoxy-8-oxo-7,8-dihydro-9H-purin-9-yl)butyl][3-(dimethylamino)-2,2-dimethylpropyl]amino}sulfonyl)phenyl]acetic acid]
Second: CCCCOc1nc(N)c2[nH]c(=O)n(CCCCN(Cc3cccc(CC(=O)O)c3)CC(C)(C)CN(C)C)c2n1 [Example 2-32, [3-({[4-(6-Amino-2-butoxy-8-oxo-7,8-dihydro-9H-purin-9-yl)butyl][3-(dimethylamino)-2,2-dimethylpropyl]amino}methyl)phenyl]acetic acid]
The melting point of the first is lower: 175 to 176 °C for the first, 189 to 190 °C for the second.

First: CCCCOc1nc(N)c2[nH]c(=O)n(CCCCNS(=O)(=O)c3ccc(CCC(=O)OC)cc3)c2n1 [Example 2-11, Methyl 3-[4-({[4-(6-amino-2-butoxy-8-oxo-7,8-dihydro-9H-purin-9-yl)butyl]amino}sulfonyl)phenyl]propanoate]
Second: CCCCOc1nc(N)c2[nH]c(=O)n(CCCCNS(=O)(=O)c3ccc(CCC(=O)O)cc3)c2n1 [Example 2-12, 3-[4-({[4-(6-Amino-2-butoxy-8-oxo-7,8-dihydro-9H-purin-9-yl)butyl]amino}sulfonyl)phenyl]propionic acid]
The melting point of the first is lower: 150 to 152 °C for the first, 210 to 211 °C for the second.

First: CCCCOc1nc(N)c2[nH]c(=O)n(CCN(C)Cc3cccc(CC(=O)O)c3)c2n1 [Example 2-50, (3-{[[2-(6-Amino-2-butoxy-8-oxo-7,8-dihydro-9H-purin-9-yl)ethyl](methyl)amino]methyl}phenyl)acetic acid]
Second: CCCCOc1nc(N)c2[nH]c(=O)n(CCCNc3cccc(CC(=O)O)c3)c2n1 [Example 2-43, (3-{[3-(6-Amino-2-butoxy-8-oxo-7,8-dihydro-9H-purin-9-yl)propyl]amino}phenyl)acetic acid]
The melting point of the first is lower: 164 to 166 °C for the first, 247 °C for the second.

First: CCCCOc1nc(N)c2[nH]c(=O)n(CCCCN(CC(C)(C)O)S(=O)(=O)c3cccc(CC(=O)OC)c3)c2n1 [Example 2-22, Methyl (3-{[[4-(6-amino-2-butoxy-8-oxo-7,8-dihydro-9H-purin-9-yl)butyl](2-hydroxy-2-methylpropyl)amino]sulfonyl}phenyl)acetate]
Second: CCCCOc1nc(N)c2[nH]c(=O)n(CCCCN(C)S(=O)(=O)c3cccc(CC(=O)O)c3)c2n1 [Example 2-18, (3-{[[4-(6-Amino-2-butoxy-8-oxo-7,8-dihydro-9H-purin-9-yl)butyl](methyl)amino]sulfonyl}phenyl)acetic acid]
The melting point of the first is higher: 192 to 193 °C for the first, 171 to 172 °C for the second.

First: CCCCOc1nc(N)c2[nH]c(=O)n(CCS(=O)(=O)c3cccc(CC(=O)OC)c3)c2n1 [Example 2-48, Methyl (3-{[2-(6-amino-2-butoxy-8-oxo-7,8-dihydro-9H-purin-9-yl)ethyl]sulfonyl}phenyl)acetate]
Second: CCCCOc1nc(N)c2[nH]c(=O)n(CCCNS(=O)(=O)c3cccc(CC(=O)OC)c3)c2n1 [Example 2-21, Methyl [3-({[3-(6-amino-2-butoxy-8-oxo-7,8-dihydro-9H-purin-9-yl)propyl]amino}sulfonyl)phenyl]acetate]
The melting point of the first is higher: 246 to 247 °C for the first, 218 to 219 °C for the second.

First: CCCCOc1nc(N)c2[nH]c(=O)n(CCCCN(CCN3CCCC3)S(=O)(=O)c3cccc(CC(=O)O)c3)c2n1 [Example 2-14, (3-{[[4-(6-Amino-2-butoxy-8-oxo-7,8-dihydro-9H-purin-9-yl)butyl](2-pyrrolidin-1-ylethyl)amino]sulfonyl}phenyl)acetic acid]
Second: CCCCOc1nc(N)c2[nH]c(=O)n(CCCNCc3cccc(C(=O)OC)c3)c2n1 [Example 2-3, Methyl 3-({[3-(6-amino-2-butoxy-8-oxo-7,8-dihydro-9H-purin-9-yl)propyl]amino}methyl)benzoate]
The melting point of the first is lower: 192 to 193 °C for the first, 214 to 218 °C for the second.

From patent US8969362B2 (priority 2004, dated 2015)
